Reference: patent US10201610B2, “Interference peptides and use thereof” (The University of Western Australia, priority 2014, dated 2019)
Ends that are not written are not given here.

Assays:
[1] = test system: caspase 3 activity in SUM149PT cells; experiment: Caspase-3 colorimetric assay in SUM149PT cells; format: cell-based, human; conditions: 8 hours, compared with non-treated or iPep624ΔHEX-treated cells
Text: (§1) The EN1-iPeps and iPep controls were first tested in SUM149PT cells carrying high EN1 expression. Cells were first treated with a full-length 29-mer peptide (iPep624) comprising the N-terminal, less conserved amino acid sequences, the hexamotif, and the C-terminal tail. As a control, the inventors generated the iPep624ΔHEX in which the hexamotif was mutated from the wild type (wt) WPAWVY (SEQ ID NO: 13) to the GAAGAG (SEQ ID NO: 15) sequence. These mutations were expected to dramatically abolish the activity of the peptide. Both peptides were included in the culture medium of the basal cancer cells in increasing (0-100 μM) concentrations and incubated for 8 hours at 37° C. Treated cells were first analyzed using the Cell Titer Glo assay, which monitors metabolic viability. […] This calculated value of IC50 is in the range of concentrations observed with other peptides delivered with CPPs.
Detection of apoptosis was performed with a Caspase-3 colorimetric assay (Sigma-Aldrich, St Louis, Mo.) according to the manufacturer's instructions.

[2] = test system: SUM149PT cells; experiment: cells; format: cell-based, human
Text: as §1
All peptides were synthetized at the UNC High-Throughput Peptide Synthesis and Array Facility at UNC. Taxol, Rotenone and Halofuginone (Sigma-Aldrich, St Louis, Mo.) were dissolved in DMSO. A total of […] or 1×10^3 breast cells for peptide and drug treatment respectively, were seeded in 96-well plates. Cells were exposed for 8 hours to the peptide and 48 to 72 hours for drug treatment. The cell viability after peptide/drug treatment was assayed with the Cell Titer Glo (CTG) assay (Promega, Madison, Wis., USA).

[3] = target: T1, PAX6 (Homo sapiens, UniProt P26367); experiment: Immunoprecipitation and western blotting of TFHDs from SUM149PT extracts; format: binding; conditions: versus control peptide
T1 construct: endogenous in cells; host or cells: SUM149PT total protein extract
T1 sequence (P26367 whole entry): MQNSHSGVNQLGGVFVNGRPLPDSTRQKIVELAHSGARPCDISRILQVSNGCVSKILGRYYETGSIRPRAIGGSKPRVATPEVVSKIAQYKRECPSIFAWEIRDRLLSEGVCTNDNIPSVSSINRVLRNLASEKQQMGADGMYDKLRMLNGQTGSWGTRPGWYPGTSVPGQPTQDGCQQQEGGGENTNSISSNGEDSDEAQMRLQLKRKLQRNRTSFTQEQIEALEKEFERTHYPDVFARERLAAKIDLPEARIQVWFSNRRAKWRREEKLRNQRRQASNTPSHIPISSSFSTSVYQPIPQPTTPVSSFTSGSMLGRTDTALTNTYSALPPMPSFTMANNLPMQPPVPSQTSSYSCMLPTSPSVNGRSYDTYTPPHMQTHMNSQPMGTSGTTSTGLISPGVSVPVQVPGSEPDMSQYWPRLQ
Text: To investigate the binding partners of the iPeps in cancer cells, the inventors carried out affinity capture immunoprecipitation experiments using the biotinylated active iPep624 as bait, and the iPep624ΔHEX as negative control. They used total protein extracts from SUM149PT cells to capture endogenous proteins able to bind these peptides in vitro. Elutes were loaded in a 1D-SDS PAGE gel to visualize the enrichment of individual proteins. […] In addition, overexpression of EN1 cDNA into two different breast cell lines confirmed the interaction of the full length EN1 with the endogenous EPRS inside the cells (FIG. 6c). To ascertain whether some downstream well-known effectors of EPRS were also differentially regulated by the iPeps, we performed real time PCR to detect mRNA levels of COLA1, COLA2, S1004A and DDIT3 (CHOP). […] COLA1 and COLA2 encode collagen proteins highly enriched by the amino acid proline and S1004A is a protein involved in metastasis and fibrosis. […] In contrast, the amino acid stress factor DDIT3 is stimulated upon EPRS inhibition. […]
The iPep624 and iPep624ΔHEX were coupled to a C-terminal biotin and immobilized in streptavidin-coated beads. […] Detection was performed with ECL Detection System (GE Healthcare) and quantitated using Image J v1.46 (ImageJ, NCBI).

[4] = test system: mRNA levels of COLA1, COLA2, S1004A and DDIT3 (CHOP); experiment: Real time PCR of downstream effectors of EPRS in SUM149PT cells; format: cell-based, human
Text: FIG. 6 EN1-Ipeps binds the endogenous Glutamyl-Prolyl tRNA synthetase (EPRS) target and regulates downstream EPRS effectors in breast cancer cells. (a) EN1-iPep624 (SEQ ID NO: 5) captures and binds EPRS from total extracts of SUM149-PT cells. Affinity-capture immunoprecipitation and western blot detection of EPRS using biotinylated iPeps as bait, and total extracts of SUM149-PT cells. Same input loading of extract is shown in the SDS-PAGE gel on the left. […] The immunoprecipitations were done at least three times and averages and standard errors between experiments are indicated (p<0.01*, p<0.001**). (b) Full length EN1 binds the endogenous EPRS in MDA-MB-231 and SUM149PT cells. Total extracts of MDA-MB-231 and SUM149PT expressing either a full length EN1 cDNA engineered with a N-terminal FLAG tag or an empty-vector control were processed by immunoprecipitation with an anti-FLAG antibody. Immunoprecipitated complexes were blotted with an EPRS-specific antibody to detect endogenous EPRS. The same amount of loaded extracts (INPUT) is shown with anti-tubulin as endogenous control. The enrichment of the immunoprecipitated products was determined by quantification of the bands by densitometry as described above, and data was normalized to iPep624ΔHEX (SEQ ID NO: 18) control. […] Cell viability was determined by a Cell Titer Glo assay and IC50 concentrations determined as described in FIG. 5. […]

## KKKRKVTDSQQPLVWPAWVYCTRYSDRPS [iPep624]
[1]
  caspase 3 activity: significantly higher
[2]; 8 h
  IC50: 17.5 µM
[2]; SUM149PT, 0-100 μM peptide, 8 hours
  cell viability: decreased cell viability
[2]; SUM149PT, co-treatment with 500 nM iPep
  sensitization to halofuginone: sensitized even more the basal-like breast cancer cells to halofuginone
[2]; SUM149PT, single agent
  breast cancer cell death: induced very potent breast cancer cell death
[3]
  interaction with PAX6: specific interactions
[4]; 15 μM active iPep over control
  DDIT3 mRNA in EN1-overexpressing cells: significantly up-regulated
[4]; 15 μM active peptide
  up-regulation of COLA1, COLA2 and S1004A mRNA in EN1-overexpressing cells: significantly reverted
